According to patent publication US7557133B2, “Caspase inhibitors containing isoxazoline ring” (LG Life Sciences Ltd., priority 2003, dated 2009):

Key:
foot edema = experiment: Antiphlogistic effect in rats (carrageenan foot edema); type: in vivo, rat; conditions: 3 hours after carrageenan
Experimental: Male SD rats (6 weeks, Orient) were kept under the conditions of 22 °C, 55% of relative humidity, and light-darkness cycle of 12 hours. Food and water were supplied ad libitum. Before the induction of edema, the foot volume of each rat was measured by plethysmometer. Before the induction of edema, vehicle (a mixture of PEG400: ethanol:Tween80=15:7.5:2.5 was diluted by ten times with phosphate buffer) wherein the test compound is dissolved or the vehicle alone was orally administered into the rats. Carrageenan (gamma) was dissolved in the concentration of 1% in saline, and subcutaneously injected into the right rear foot of the rats in the dosage of 100 μl. After 3 hours, the right foot volume was measured again by plethysmometer. The effect of the test compound was shown by edema inhibition (%) (see Table 3). The edema inhibition (%) was calculated according to the following Equation 2. Edema Inhibition (%)=100×(Average of the increased foot volume in the vehicle-administered group−Increased foot volume in the test compound-administered group)/Average of the increased foot volume in the vehicle-administered group Equation 2

caspase-1 = molecular target: T1, caspase-1 (Homo sapiens, UniProt P29466); experiment: Caspase-1 inhibitory effect (fluorescent substrate AcYVAD-AFC); type: biochemical; conditions: pH 7.5; 25° C., 50 μM AcYVAD-AFC, 10 nM caspase-1; read-out: Caspase-1 Kobs/[I] (converted)
T1 construct: p10 and p20 subunits (Thornberry, N. A. et al, Nature, 1992, 356, 768) were expressed in E. coli; made in house; host or cells: E. coli
T1 sequence (P29466 120-297 limits assumed): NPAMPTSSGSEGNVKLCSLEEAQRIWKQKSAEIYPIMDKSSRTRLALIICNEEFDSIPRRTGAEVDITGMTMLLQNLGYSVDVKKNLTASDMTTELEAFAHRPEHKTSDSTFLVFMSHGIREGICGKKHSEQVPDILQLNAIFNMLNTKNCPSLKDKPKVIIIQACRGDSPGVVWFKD
T1 sequence (P29466 317-404 limits assumed): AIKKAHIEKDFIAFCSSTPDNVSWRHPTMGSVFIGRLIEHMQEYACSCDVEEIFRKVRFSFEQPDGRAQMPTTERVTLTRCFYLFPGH
Experimental: (§1) Caspase-1 and caspase-8 known as cysteine proteases in the form of α2β2 were expressed, purified, and activated by modifying a method known in Thornberry, N. A. et al, Nature, 1992, 356, 768. Thornberry, N. A. Methods in Enzymology, 1994, 244, 615. Walker, N. P. C. et al. Cell, 1994, 78, 343, and caspase-9 was also purified by a similar method, and the inhibitory activity against them was tested. Briefly describing, p10 and p20 subunits (Thornberry, N. A. et al, Nature, 1992, 356, 768) were expressed in E. coli and purified by nickel column and anionic exchange chromatography to give caspase-1, caspase-8 and caspase-9. The fluorescent substrate AcYVAD-AFC for thus obtained caspase-1, AcDEVD-AFC for caspase-8, and AcLEHD-AFC for caspase-9 were used for determining specific activity of the synthesized inhibitors. The enzyme reaction was carried out at 25° C. with various concentrations of the inhibitors in a buffer solution containing 50 mM HEPES(pH 7.50), 10% (w/v) sucrose, 0.1% (w/v) CHAPS, 100 mM NaCl, 1 mM EDTA, and 10 mM DTT in the presence of 50 μM AcYVAD-AFC for 10 nM caspase-1, 50 μM AcDEVD-AFC for 2.1 nM caspase-8, and 150 μM AcLEHD-AFC for 200 nM caspase-9. The inhibitory constants Ki and Kobs of the inhibitors were determined by measuring the reaction velocity with the time lapse using a fluorescent spectrometer and by obtaining the initial rate constant. Ki was calculated from the Lineweaver Burk Plot, and Kobs from the following Equation 1. Kobs=−ln(1−At/Aoo)/t Equation 1
At means cleavate rate (%) at time t, and
Aoo means the maximum cleavage rate (%).
Spectra MAX GeminiXS Fluorescent Spectrometer of Molecular Device Co. was used at the excitation wavelength of 405 nm and the emission wavelength of […].

caspase-9 = molecular target: T2, caspase-9 (Homo sapiens, UniProt P55211); experiment: Caspase-9 inhibitory effect (fluorescent substrate AcLEHD-AFC); type: biochemical; conditions: pH 7.5; 25° C., 150 μM AcLEHD-AFC, 200 nM caspase-9; read-out: Caspase-9 Kobs/[I] (converted)
T2 construct: p10 and p20 subunits (Thornberry, N. A. et al, Nature, 1992, 356, 768) were expressed in E. coli; made in house; host or cells: E. coli
T2 sequence (P55211 1-315 limits assumed): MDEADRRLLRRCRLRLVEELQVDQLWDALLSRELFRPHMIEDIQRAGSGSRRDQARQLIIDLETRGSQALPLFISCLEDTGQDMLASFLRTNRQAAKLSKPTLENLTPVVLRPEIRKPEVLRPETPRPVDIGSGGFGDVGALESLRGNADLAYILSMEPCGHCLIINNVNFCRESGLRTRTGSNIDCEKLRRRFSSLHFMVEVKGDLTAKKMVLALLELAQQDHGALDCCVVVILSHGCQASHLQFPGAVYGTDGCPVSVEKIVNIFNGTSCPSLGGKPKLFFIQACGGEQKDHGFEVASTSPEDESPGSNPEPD
T2 sequence (P55211 331-416 limits assumed): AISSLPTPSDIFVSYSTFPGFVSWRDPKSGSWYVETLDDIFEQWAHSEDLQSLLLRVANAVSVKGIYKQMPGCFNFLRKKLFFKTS
Experimental: as §1, with “The enzyme reaction was carried out at 25° C. with various concentrations of the inhibitors in a buffer solution containing 50 mM HEPES(pH 7.50), 10% (w/v) sucrose, 0.1% (w/v) CHAPS, 100 mM NaCl, 1 mM EDTA, and 10 mM DTT in the presence of 50 μM AcYVAD-AFC for 10 nM caspase-1, 50 μM AcDEVD-AFC for 2.1 nM caspase-8, and 150 μM AcLEHD-AFC for 200 nM caspase-9.” left out, “Kobs=−ln(1−At/Aoo)/t Equation 1” left out

caspase-8 = molecular target: T3, caspase-8 (Homo sapiens, UniProt Q14790); experiment: Caspase-8 inhibitory effect (fluorescent substrate AcDEVD-AFC); type: biochemical
T3 construct: p10 and p20 subunits (Thornberry, N. A. et al, Nature, 1992, 356, 768) were expressed in E. coli; made in house; host or cells: E. coli
In short: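 E. coli–expressed p10/p20 caspase-8, 2.1 nM, with 50 μM Ac-DEVD-AFC at 25 °C in 50 mM HEPES pH 7.50, sucrose, CHAPS, NaCl, EDTA, 10 mM DTT over various inhibitor concentrations. Initial rates by fluorescence (ex 405 / em 505); Ki from Lineweaver-Burk plot, Kobs from time-course cleavage equation.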

[1] = system: LPS-induced acute hepatitis; experiment: Therapeutic effect for LPS-induced acute hepatitis in mouse (plasma ALT); type: in vivo
Experimental: Female Balb/c mice (6 weeks, Charles River Laboratory, Osaka, Japan) were kept under the conditions of 22 °C, 55% of relative humidity, and light-darkness cycle of 12 hours. Food and water were supplied ad libitum. In pyrogen-free saline were dissolved LPS (lipopolysaccaride) and D-galactosamine in concentrations of 0.4 mg/ml and 280 mg/ml, respectively, and their 1:1 mixture was injected to mice in the amount of 5 ml/kg. Immediately after the injection of LPS and D-galactosamine, vehicle (a mixture of PEG400:ethanol:Tween80=15:7.5:2.5 was diluted by five times with saline) wherein the test compound is dissolved or the vehicle alone was intraperitoneally injected into the mice. After 8 hours from the drug injection, blood samples were obtained from their hearts.
The plasma ALT activity was determined for the blood samples obtained in Step 1 using ALT assay kit (Asan Pharm. Co., Seoul, Korea) according to the manufacturer's instruction.

[2] = Solubility (pH = 7.44 phosphate); type: physicochemical

T3 sequence (Q14790 217-374 limits assumed, species assumed): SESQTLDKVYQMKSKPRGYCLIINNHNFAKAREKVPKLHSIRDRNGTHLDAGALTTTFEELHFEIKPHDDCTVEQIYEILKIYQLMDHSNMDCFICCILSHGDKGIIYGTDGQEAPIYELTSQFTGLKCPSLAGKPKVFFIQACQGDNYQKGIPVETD
T3 sequence (Q14790 385-479 limits assumed, species assumed): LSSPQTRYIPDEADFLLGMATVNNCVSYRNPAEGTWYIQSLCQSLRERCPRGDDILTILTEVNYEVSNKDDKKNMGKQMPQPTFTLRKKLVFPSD

kinact/KI (caspase-1): 18300 M⁻¹ s⁻¹ | kinact/KI (caspase-9): 3330 M⁻¹ s⁻¹ | increased inhibitory activity against caspase-8 compared with LB84068MP (caspase-8): ≥ 10 times | kinact/KI (caspase-8; pH 7.5, 25° C., 50 μM AcDEVD-AFC, 2.1 nM caspase-8, read-out: Caspase-8 Kobs/[I] (converted)): 217000 M⁻¹ s⁻¹ | solubility compared with LB84068MP [2]: improved solubility
Compound: CC(C)[C@@]1(C(=O)NC(CC(=O)O)C(=O)CF)CC(c2nccc3ccccc23)=NO1 (stereo partly drawn) [Iii, 5-Fluoro-3-({[(5R)-5-isopropyl-3-(1-isoquinolinyl)-4,5-dihydro-5-isoxazolyl]carbonyl}amino)-4-oxopentanoic acid]
Edema inhibition effect (%) Average (foot edema; 30 mg/kg oral): 20.7% | Edema inhibition effect (%) Average (foot edema; 100 mg/kg oral): 22.7% | increased activity against LPS-induced acute hepatitis model (mouse) compared with LB84068MP ([1]; in vivo): about 100 times | ED50 ([1]; ip, LPS and D-galactosamine, intraperitoneally injected, plasma ALT after 8 hours, read-out: ED50 (LPS + Gal)): 0.01 mg/kg
